According to ChEMBL document CHEMBL3885861, “Open TG-GATES”:

Organism: Rattus norvegicus
Assay: Open TG-GATES - Regimen: Daily Repeat
Assay type: toxicity, organism-based, Sprague-Dawley
Parameters: regimen Daily Repeat, gender Male, age 6 weeks
Conditions: in vivo, po, 0 mg/kg, route gavage, dose level Control; for APTT / Bas / Eos / Fbg / Hb / Ht / Lym / MCH / MCHC / MCV / Mono / Neu / PT / Plat / RBC / Ret / WBC: tissue Blood
[1] = 72 h, tissue Kidney, time 3 day
[2] = 72 h, tissue Plasma, time 3 day

`COc1ccc(Cc2nccc3cc(OC)c(OC)cc23)cc1OC` [PAPAVERINE] showed a TERMINAL_BW (72 h, time 3 day) of 240.5 g, an APTT (72 h, time 3 day) of 21.1 s and a Bas (72 h, time 3 day) of 0%. It also gave an Eos (72 h, time 3 day) of 1%, a Fbg (72 h, time 3 day) of 326.8 mg/dL and a Hb (72 h, time 3 day) of 13.5 g/dL. The Ht (72 h, time 3 day) was 40.7%, the Lym (72 h, time 3 day) was 81.2% and the MCH (72 h, time 3 day) was 21 pg. The MCHC (72 h, time 3 day) was 33.4%, the MCV (72 h, time 3 day) was 63 fL and the Mono (72 h, time 3 day) was 2.2%. The Neu (72 h, time 3 day) was 14.4%, the PT (72 h, time 3 day) was 15.8 s and the Plat (72 h, time 3 day) was 114.4 x10_4/uL. It also gave an RBC (72 h, time 3 day) of 645.6 x10_4/ul, a Ret (72 h, time 3 day) of 6.6% and a WBC (72 h, time 3 day) of 105.4 x10_2/uL. For the same molecule, the KIDNEY_L [1] was 1 g, the KIDNEY_R [1] was 1 g and the KIDNEY_TOTAL [1] was 2 g. The LIVER (72 h, tissue Liver, time 3 day) was 11.4 g, the A/G [2] was 1.2 and the ALP [2] was 1572.8 IU/L. It also gave an ALT [2] of 41.4 IU/L, an AST [2] of 70.2 IU/L and a BUN [2] of 16 mg/dL. For the same molecule, the CRE [2] was 0.2 mg/dL, the Ca [2] was 11 mg/dL and the Cl [2] was 108.2 meq/L. It also gave a DBIL [2] of 0 mg/dL, a GLC [2] of 202.2 mg/dL and an IP [2] of 7.2 mg/dL. For the same molecule, the K [2] was 4.2 meq/L, the LDH [2] was 171.6 IU/L and the Na [2] was 142.6 meq/L. The PL [2] was 136.4 mg/dL, the RALB [2] was 3 g/dL and the TBIL [2] was 0.004 mg/dL. The TC [2] was 72 mg/dL, the TG [2] was 116 mg/dL and the TP [2] was 5.5 g/dL. For the same molecule, the gamma-GTP [2] was 1.2 IU/L, the TERMINAL_BW ([…], time 7 day) was 267.4 g and the TERMINAL_BW ([…], time 14 day) was 326.9 g. For the same molecule, the TERMINAL_BW ([…], time 28 day) was 413.6 g, the APTT ([…], time 7 day) was 23.2 s and the Bas ([…], time 7 day) was 0%. It also gave an Eos ([…], time 7 day) of 0.8%, a Fbg ([…], time 7 day) of 299 mg/dL and a Hb ([…], time 7 day) of 13.7 g/dL. The Ht ([…], time 7 day) was 40.3%, the Lym ([…], time 7 day) was 80% and the MCH ([…], time 7 day) was 21 pg. It also gave an MCHC ([…], time 7 day) of 34.1%, an MCV ([…], time 7 day) of 61.6 fL and a Mono ([…], time 7 day) of 2.8%. It also gave a Neu ([…], time 7 day) of 14.8%, a PT ([…], time 7 day) of 15.7 s and a Plat ([…], time 7 day) of 111.7 x10_4/uL. The RBC ([…], time 7 day) was 654 x10_4/ul, the Ret ([…], time 7 day) was 5.6% and the WBC ([…], time 7 day) was 125.6 x10_2/uL. For the same molecule, the APTT ([…], time 14 day) was 22.8 s, the Bas ([…], time 14 day) was 0% and the Eos ([…], time 14 day) was 1%. The Fbg ([…], time 14 day) was 316.8 mg/dL, the Hb ([…], time 14 day) was 14.6 g/dL and the Ht ([…], time 14 day) was 42.7%. It also gave a Lym ([…], time 14 day) of 82%, an MCH ([…], time 14 day) of 20.7 pg and an MCHC ([…], time 14 day) of 34.1%. For the same molecule, the MCV ([…], time 14 day) was 60.5 fL, the Mono ([…], time 14 day) was 2.2% and the Neu ([…], time 14 day) was 13.2%. For the same molecule, the PT ([…], time 14 day) was 15.5 s, the Plat ([…], time 14 day) was 107 x10_4/uL and the RBC ([…], time 14 day) was 707 x10_4/ul. The Ret ([…], time 14 day) was 5%, the WBC ([…], time 14 day) was 120 x10_2/uL and the APTT ([…], time 28 day) was 24.6 s. For the same molecule, the Bas ([…], time 28 day) was 0%, the Eos ([…], time 28 day) was 1.6% and the Fbg ([…], time 28 day) was 315.8 mg/dL. For the same molecule, the Hb ([…], time 28 day) was 14.5 g/dL and the Ht ([…], time 28 day) was 43.8%.
